In publication PMC5381205, “A Clinically Relevant Variant of the Human Hydrogen Sulfide-Synthesizing Enzyme Cystathionine β-Synthase: Increased CO Reactivity as a Novel Molecular Mechanism of Pathogenicity?” (Oxidative Medicine and Cellular Longevity, 2017):
Substitutions are numbered along the chain they refer to. Values joined by “and” are separate entries in the source; they are usually repeats but may differ in a detail not shown here. Identical values can stand only once. Like-named read-outs stand apart in the source and are kept apart here. Each block holds one molecule with its values, some of them ahead of it.

How the values were obtained:
[1] = molecular target: T1, human CBS p.P49L (ferrous heme) (Homo sapiens, UniProt P35520, P49L); assay: Anaerobic CO titrations of reduced CBS p.P49L (UV-visible absorption); format: binding; details: 20°C
T1 construct: Recombinant full-length human CBS p.P49L was expressed and purified; made in house; host or cells: E. coli
T1 sequence (P35520 1-551 P49L): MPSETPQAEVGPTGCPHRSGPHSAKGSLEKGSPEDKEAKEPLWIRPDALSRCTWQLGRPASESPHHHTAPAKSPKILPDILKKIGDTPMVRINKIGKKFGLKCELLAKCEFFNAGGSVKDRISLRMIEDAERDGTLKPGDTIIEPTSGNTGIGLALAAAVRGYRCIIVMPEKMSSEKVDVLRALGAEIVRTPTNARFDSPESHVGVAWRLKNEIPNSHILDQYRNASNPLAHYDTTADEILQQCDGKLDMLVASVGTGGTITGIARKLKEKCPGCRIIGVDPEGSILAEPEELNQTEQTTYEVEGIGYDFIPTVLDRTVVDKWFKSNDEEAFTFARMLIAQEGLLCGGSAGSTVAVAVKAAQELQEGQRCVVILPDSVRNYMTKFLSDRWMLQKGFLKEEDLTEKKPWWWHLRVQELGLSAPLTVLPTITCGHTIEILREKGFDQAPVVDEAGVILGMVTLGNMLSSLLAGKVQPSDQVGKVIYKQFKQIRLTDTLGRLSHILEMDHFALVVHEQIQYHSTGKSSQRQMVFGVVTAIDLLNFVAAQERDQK
Procedure: UV-visible absorption spectra of oxidized and reduced CBS p.P49L and WT were recorded in an Agilent Cary-60 spectrophotometer. Anaerobic titrations of reduced CBS p.P49L with CO were performed at 20°C in an Agilent Cary-60 or a Shimadzu UVPC-1800 spectrophotometer. Gas exchange was prevented either by filling the quartz cuvette and sealing it with a rubber-cap or by adding mineral oil on top of the aqueous medium. Anaerobic conditions were ensured by nitrogen flushing and addition of glucose oxidase (4 units·ml^−1), catalase (13 μg·ml^−1), superoxide dismutase (12 units·ml^−1), and glucose (3 mM) to scavenge contaminant oxygen, hydrogen peroxide, and superoxide anion. CBS p.P49L and WT (1.4–1.6 μM in heme) were reduced with 90 μM sodium dithionite, diluted from a 45 mM stock solution (quantitated using ε314 nm = 8,043 M^−1·cm^−1 [50]). CO stock solutions were prepared by equilibrating thoroughly degassed buffer A with the pure gas at 1 atm, yielding 1 mM CO at 20°C. After each CO addition with gas-tight Hamilton syringes, the spectral changes were visually inspected in real time and a new addition was immediately made when no more changes were observed.
According to [16, 19, 20, 51], two apparent Kd (Kd1 and Kd2) were used to satisfactorily fit the CO affinity data. The Kd1 and Kd2 values were obtained by fitting the data to (1), where PL is the concentration of CO-bound CBS p.P49L, PT and LT are, respectively, the total CBS p.P49L and CO concentrations, and α1 and α2 are, respectively, the protein fractions binding CO at higher (Kd1) and lower (Kd2) affinity. (1) PL=α1PT+LT+Kd1−PT+LT+Kd1^2−4PTLT+α2PT+LT+Kd2−PT+LT+Kd2^2−4PTLT/2.
(§1) CO affinity titrations and CO binding and dissociation kinetic data were analyzed with the software MATLAB (Mathworks). Global fit analysis of spectral data was performed by singular value decomposition analysis combined with curve fitting.

[2] = molecular target: T1, human CBS p.P49L (ferrous heme); assay: Stopped-flow kinetics of CO binding to ferrous CBS p.P49L; details: for CO binding fitted rate constant k2 / CO binding fitted rate constant k1 / CO binding fitted rate constant k3: 1 mM CO, 25°C; for CO binding fitted rate constant k2: 30% reaction amplitude
Procedure: (§2) Time-resolved absorption spectroscopy experiments were carried out in a thermostated stopped-flow instrument (DX.17MV, Applied Photophysics), equipped with a photodiode-array (light path, 1 cm). To avoid light-induced artifacts, the intensity of the white-light incident beam was decreased and a filter cutting UV light at λ < 360 nm was employed. Absorption spectra were recorded with an acquisition time of 10 ms per spectrum according to a logarithmic time scale. All reactions were carried out at 25°C in buffer A. CBS p.P49L was thoroughly flushed with nitrogen, after which glucose oxidase (4 units·ml^−1), catalase (13 μg·ml^−1), superoxide dismutase (12 units·ml^−1), and glucose (3 mM) were added to scavenge oxygen, hydrogen peroxide, and superoxide anion. The protein was then placed on ice, protected from light to prevent possible damaging photoreactions. When indicated, CBS p.P49L was incubated with AdoMet for ≥10 minutes, prior to reduction with 90 µM sodium dithionite. CO association kinetics were studied by mixing in the stopped-flow apparatus reduced CBS p.P49L, in the absence or presence of AdoMet, with CO solutions and the spectra recorded over time. CO dissociation kinetics were evaluated by mixing the Fe(II)-CO adduct of CBS p.P49L with NO• stock solutions, prepared by equilibrating degassed ultra-pure water with NO• gas at 1 atm, further kept on ice protected from light.
as §1

[3] = molecular target: T2, human CBS p.P49L Fe(II)-CO adduct (Homo sapiens, UniProt P35520, P49L); assay: Stopped-flow kinetics of CO dissociation (displacement by NO•) from CBS p.P49L; format: binding; details: for CO displacement by NO• rate constant k2: 25% reaction amplitude
T2 construct: Recombinant full-length human CBS p.P49L was expressed and purified; made in house; host or cells: E. coli
T2 sequence (P35520 1-551 P49L): T1 sequence (P35520 1-551 P49L)
Procedure: as §2, §1

[4] = molecular target: T3, human WT CBS Fe(II)-CO adduct (Homo sapiens, UniProt P35520); assay: Stopped-flow kinetics of CO dissociation (displacement by NO•) from WT CBS; format: binding; details: WT enzyme; NO• 900 µM after mixing; 75% relative amplitude; data not shown
T3 construct: employed in this study, corresponding to full-length CBS WT and p.P49L purified in the absence; made in house
T3 sequence (P35520 1-551): T1 sequence (P35520 1-551 P49L) with L49P

[5] = molecular target: T4, human WT CBS (ferrous heme) (Homo sapiens, UniProt P35520); assay: Stopped-flow kinetics of CO binding to ferrous WT CBS; details: WT enzyme
T4 construct: employed in this study, corresponding to full-length CBS WT and p.P49L purified in the absence; made in house
T4 sequence (P35520 1-551): T1 sequence (P35520 1-551 P49L) with L49P

[6] = molecular target: T5, recombinant human CBS p.P49L (Homo sapiens, UniProt P35520, P49L); assay: H2S synthesis assay (amperometric and lead acetate methods), CBS p.P49L; format: biochemical; details: 37°C; for H2S-synthesizing activity stimulation by AdoMet: 500 μM AdoMet
T5 construct: Recombinant full-length human CBS p.P49L was expressed and purified; made in house; host or cells: E. coli
T5 sequence (P35520 1-551 P49L): T1 sequence (P35520 1-551 P49L)
Procedure: (§3) H2S production by recombinant human CBS variants was measured at 37°C, either by amperometry using a H2S-selective electrode (World Precision Instruments) or by the lead acetate method. Purified CBS (0.5–1 μM) was incubated for 10 minutes with 50 μM PLP, 260 U/ml catalase, and 0.4–2.0 mM homocysteine in the absence or presence of 0.5 mM AdoMet, after which 10 mM cysteine was added to trigger the reaction. Amperometric assays were performed using an ISO-H2S-2 hydrogen sulfide sensor coupled to an Apollo 4000 Free Radical Analyzer (World Precision Instruments). After recording H2S production for 3 minutes, the electrode was internally calibrated by adding 4 μM NaHS (corresponding to 2 μM H2S at pH 7.0). Finally, 50 μM o-acetylserine and 200 nM Entamoeba histolytica o-acetylserine sulfhydrylase were added to the reaction mixture to remove H2S from solution and bring the signal back to baseline. Activity assays by the lead acetate method were carried out in a thermostated cuvette under stirring, according to [5]. Lead acetate (400 μM) was added to the reaction mix prior to cysteine addition and H2S production monitored at 390 nm in an Agilent Cary-60 spectrophotometer.

recombinant human WT CBS [7] = molecular target: T6, recombinant human WT CBS (Homo sapiens, UniProt P35520); assay: H2S synthesis assay (amperometric and lead acetate methods), WT CBS; format: biochemical; details: for H2S-synthesizing activity stimulation by AdoMet: 500 μM AdoMet, 37°C
T6 construct: employed in this study, corresponding to full-length CBS WT and p.P49L purified in the absence; made in house
T6 sequence (P35520 1-551): T1 sequence (P35520 1-551 P49L) with L49P
Procedure: as §3

recombinant human WT CBS [8] = molecular target: T6, recombinant human WT CBS; details: isolated proteins and bacterial or human cell lysates; cited from earlier work
[9] = AdoMet-bound CBS p.P49L, 35% reaction amplitude

SMILES: [C-]#[O+] [CO, Carbon monoxide]
Kd ([1]; AdoMet-bound p.P49L CBS (500 μM AdoMet), 30% relative amplitude, read-out: KdCO,2): 1500 nM and 2100 nM | Kd ([1]; AdoMet-bound p.P49L CBS (500 μM AdoMet), 70% relative amplitude, upper limit, read-out: KdCO,1): ≤ 30 nM | Kd ([1]; AdoMet-free p.P49L CBS, higher-affinity fraction, 60% relative amplitude, read-out: KdCO,1): 60 nM and 50 nM | Kd ([1]; AdoMet-free p.P49L CBS, lower-affinity fraction, 40% relative amplitude, read-out: KdCO,2): 21000 nM and 22000 nM | CO binding fitted rate constant k2 ([2]; AdoMet-bound CBS p.P49L): 0.26 s⁻¹ | CO binding fitted rate constant k1 [2, 9]: 2.55 s⁻¹ | CO binding fitted rate constant k3 [2, 9]: 0.022 s⁻¹ | CO binding fitted rate constant k1 ([2]; AdoMet-free CBS p.P49L, 25% reaction amplitude): 0.48 s⁻¹ | CO binding fitted rate constant k2 ([2]; AdoMet-free CBS p.P49L): 0.05 s⁻¹ | CO binding fitted rate constant k3 ([2]; AdoMet-free CBS p.P49L, 45% reaction amplitude): 0.006 s⁻¹ | CO displacement by NO• rate constant k2 ([3]; AdoMet-bound CBS p.P49L (500 μM before mixing), 900 μM NO•, Figure 5(b) fit): 0.038 s⁻¹ | CO displacement by NO• rate constant k1 ([3]; AdoMet-bound CBS p.P49L (500 μM before mixing), 900 μM NO•, 75% reaction amplitude, Figure 5(b) fit): 1.96 s⁻¹ | CO displacement by NO• rate constant k2 ([3]; AdoMet-free CBS p.P49L, 900 μM NO•, Figure 5(b) fit): 0.035 s⁻¹ | CO displacement by NO• rate constant k1 ([3]; AdoMet-free CBS p.P49L, 900 μM NO•, 75% reaction amplitude, Figure 5(b) fit): 1.93 s⁻¹ | CO displacement by NO• rate constant k1 ([3]; CBS p.P49L, NO• 900 µM after mixing, 75% relative amplitude, no effect of AdoMet): 2.0 ± 0.1 s⁻¹ | CO displacement by NO• rate constant k1 [4]: 2.0 ± 0.1 s⁻¹

fold increase in the CO association rate in the presence of AdoMet ([2]; p.P49L variant): ~ 4.5 fold | fold increase in the CO association rate in the presence of AdoMet [5]: ~ 2 fold | H2S-synthesizing activity stimulation by AdoMet ([6]; p.P49L purified in the absence of PLP (PLP-untreated)): 1.4 fold | H2S-synthesizing activity stimulation by AdoMet ([6]; p.P49L purified in the presence of 20 μM PLP (PLP-treated)): 1.1 fold | AdoMet activation factor observed for the WT enzyme (recombinant human WT CBS [7]; WT enzyme, overall): ≤ 2 fold | H2S-synthesizing activity stimulation by AdoMet (recombinant human WT CBS [7]; WT purified in the absence of PLP (PLP-untreated)): 1.5 fold | H2S-synthesizing activity stimulation by AdoMet (recombinant human WT CBS [7]; WT purified in the presence of 20 μM PLP (PLP-treated)): 1.9 fold
SMILES: C[S+](CC[C@H](N)C(=O)[O-])C[C@H]1O[C@@H](n2cnc3c(N)ncnc32)[C@H](O)[C@@H]1O (stereo partly drawn) [AdoMet, S-Adenosyl-L-methionine]
AdoMet activation factor of CBS enzymatic activity, as usually reported (recombinant human WT CBS [8]): 2–5 fold

basal H2S-synthesizing activity of p.P49L after PLP supplementation along the purification ([6]; p.P49L purified in the presence of 20 μM PLP (PLP-treated), compared with WT): basal activity similar to the WT enzyme
SMILES: Cc1ncc(COP(=O)(O)O)c(C=O)c1O [PLP, Pyridoxal 5′-phosphate]
